Reference: the supplement of paper PMC11208160

Assay: recombinant barcode read abundance after kanamycin selection (control-corrected) (log10(CPM+1)); higher = more efficient recombination; sequences stand for … in AGTGCAGAGAAAATCGGCCAGTTTTCTCTGCCTGCAGTCCGCATGCCGT…AGATTTATGCAGCGGACTGCCTTTCTCCCAAAGTGATAAACCGGACAGTATCATGGACCGGTTTTCCCGGTAATCCGTATTTGCAAGGTTGGTTTCACT; site = the 11-nt target
In short: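 The screen was pooled in E. coli and paired targets with IS621 bridge RNA target-binding loops. Recombination efficiency is taken from barcode counts per million at recombinant junctions, averaged and adjusted against the control. Values, in the form log10(CPM+1), come from duplicate plating on chloramphenicol/ampicillin LB agar or on chloramphenicol/ampicillin/kanamycin with 0.1 mM IPTG.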
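Further: IS621 recombinase and bridge RNA in Escherichia coli cells.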

Sequence	recombinant barcode read abundance (log10)
ATCTTAGCTTGGGTTCTAACCTGTTGCCT (site ATCTTATCTAG)	0.197
ATCTTGTCTTGGGTTCTAACCTGTTGCCG (site ATCTTGTCTAG)	0.264
ATCTTGTCTTGGGTTCTAACCTGTTGCCG (site ATCTTGTCTCG)	0.0848
ATCTTGTCTTGGGTTCTAACCTGTTGCGG (site ATCTTGTCTCC)	1.83
ATCTTGTCTTGGGTTCTAACCTGTTGCGG (site CATGATACTAG)	0.102
ATGAATGCTTGGGTTCTAACCTGTTGCCT (site ATGAATGCTAG)	1.78
ATGAATGCTTGGGTTCTAACCTGTTGCCT (site ATGATTGCTAG)	0.0173
ATGACCTCTTGGGTTCTAACCTGTTGCCT (site ATGACCTCTAG)	1.46
ATGACCTCTTGGGTTCTAACCTGTTGCCT (site ATGCCCTCTAG)	0.0297
ATGACCTCTTGGGTTCTAACCTGTTGCCT (site ATGGCCTCTAG)	0.46
ATGACCTCTTGGGTTCTAACCTGTTGCCT (site ATGTCCTCTAG)	0.0902
ATGAGAACTTGGGTTCTAACCTGTTGCCG (site ATGAGAACTAG)	1.58
ATGAGAACTTGGGTTCTAACCTGTTGCCG (site ATGAGAACTCG)	1.05
ATGAGGACTTGGGTTCTAACCTGTTGCGT (site ATGAGGACTAC)	2.45
ATGAGGACTTGGGTTCTAACCTGTTGCGT (site CACCCCTCTCG)	0.14
ATGAGGCCTTGGGTTCTAACCTGTTGCCT (site ATGAGGCCTAG)	0.858
ATGAGGCCTTGGGTTCTAACCTGTTGCCT (site CTGAGGCCTAG)	0.115
ATGAGGCCTTGGGTTCTAACCTGTTGCCT (site GTGAGGCCTAG)	0.173
ATGAGGCCTTGGGTTCTAACCTGTTGCCT (site TTGAGGCCTAG)	0.209
ATGCAAGCTTGGGTTCTAACCTGTTGCCT (site ATGCAAACTAG)	0.898
ATGCAAGCTTGGGTTCTAACCTGTTGCCT (site ATGCAACCTAG)	0.0657
ATGCAAGCTTGGGTTCTAACCTGTTGCCT (site ATGCAAGCTAG)	1.48

Sequence	recombinant barcode read abundance (log10)
ATGCAAGCTTGGGTTCTAACCTGTTGCCT (site ATGCAATCTAG)	0.234
ATGCATCCTTGGGTTCTAACCTGTTGCCT (site AAGCATCCTAG)	0.0651
ATGCATCCTTGGGTTCTAACCTGTTGCCT (site ACGCATCCTAG)	0.0924
ATGCATCCTTGGGTTCTAACCTGTTGCCT (site AGGCATCCTAG)	0
ATGCATCCTTGGGTTCTAACCTGTTGCCT (site ATGCATCCTAG)	1.99
ATGCCATCTTGGGTTCTAACCTGTTGCCT (site ATACCATCTAG)	0.434
ATGCCATCTTGGGTTCTAACCTGTTGCCT (site ATCCCATCTAG)	0.885
ATGCCATCTTGGGTTCTAACCTGTTGCCT (site ATGCCATCTAG)	0.503
ATGCCATCTTGGGTTCTAACCTGTTGCCT (site ATTCCATCTAG)	0.149
ATGGACACTTGGGTTCTAACCTGTTGCGT (site ATGGACACTAC)	1.93
ATGGACACTTGGGTTCTAACCTGTTGCGT (site GACTGGCCTCT)	0.133
ATGGCGCCTTGGGTTCTAACCTGTTGCCT (site AAGGCGCCTAG)	0.296
ATGGCGCCTTGGGTTCTAACCTGTTGCCT (site ACGGCGCCTAG)	0.846
ATGGCGCCTTGGGTTCTAACCTGTTGCCT (site AGGGCGCCTAG)	0.183
ATGGCGCCTTGGGTTCTAACCTGTTGCCT (site ATGGCGCCTAG)	0.856
ATTAAGTCTTGGGTTCTAACCTGTTGCCT (site AATAAGTCTAG)	0.0662
ATTAAGTCTTGGGTTCTAACCTGTTGCCT (site ACTAAGTCTAG)	0.08
ATTAAGTCTTGGGTTCTAACCTGTTGCCT (site AGTAAGTCTAG)	0.0808
ATTAAGTCTTGGGTTCTAACCTGTTGCCT (site ATTAAGTCTAG)	0.359
ATTAGGACTTGGGTTCTAACCTGTTGCTG (site ATTAGGACTCA)	2.12
ATTAGGACTTGGGTTCTAACCTGTTGCTG (site ATTAGGACTCT)	1.56
ATTCAGACTTGGGTTCTAACCTGTTGCGG (site ATCCAGGCTCC)	0.113

Sequence	recombinant barcode read abundance (log10)
ATTCAGACTTGGGTTCTAACCTGTTGCGG (site ATTCAGACTCC)	2.33
ATTCCATCTTGGGTTCTAACCTGTTGCCT (site ATACCATCTAG)	0.57
ATTCCATCTTGGGTTCTAACCTGTTGCCT (site ATCCCATCTAG)	0.281
ATTCCATCTTGGGTTCTAACCTGTTGCCT (site ATGCCATCTAG)	0.12
ATTCCATCTTGGGTTCTAACCTGTTGCCT (site ATTCCATCTAG)	0.538
ATTGCTACTTGGGTTCTAACCTGTTGCCA (site ATTGCTACTTG)	0.122
ATTGCTACTTGGGTTCTAACCTGTTGCCA (site GAACAGCCTAC)	0.143
ATTGGCTCTTGGGTTCTAACCTGTTGCCT (site ATTGGATCTAG)	0.339
ATTGGCTCTTGGGTTCTAACCTGTTGCCT (site ATTGGCTCTAG)	0.684
ATTGGCTCTTGGGTTCTAACCTGTTGCCT (site ATTGGGTCTAG)	0.0639
ATTGGCTCTTGGGTTCTAACCTGTTGCCT (site ATTGGTTCTAG)	0.0735
ATTGGTCCTTGGGTTCTAACCTGTTGCAT (site ATTGCTCCTAG)	0.364
ATTGGTCCTTGGGTTCTAACCTGTTGCAT (site ATTGGTCCTAT)	1.92
ATTTCGACTTGGGTTCTAACCTGTTGCGG (site ATTTCGACTCC)	0.713
ATTTCGACTTGGGTTCTAACCTGTTGCGG (site GCAGGTGCTAA)	0.021
ATTTCTACTTGGGTTCTAACCTGTTGCGA (site ATTTCTACTTC)	0.194
ATTTCTACTTGGGTTCTAACCTGTTGCGA (site GTTTCTACTTA)	0.102
ATTTGGACTTGGGTTCTAACCTGTTGCCT (site ATTTGAACTAG)	0.173
ATTTGGACTTGGGTTCTAACCTGTTGCCT (site ATTTGCACTAG)	0.0773
ATTTGGACTTGGGTTCTAACCTGTTGCCT (site ATTTGGACTAG)	0.111
ATTTGGACTTGGGTTCTAACCTGTTGCCT (site ATTTGTACTAG)	0.0943
CAAAAGGCTTGGGTTCTAACCTGTTGCCT (site ATCGTACCTTA)	0.469

Sequence	recombinant barcode read abundance (log10)
CAAAAGGCTTGGGTTCTAACCTGTTGCCT (site CAAAAGGCTAG)	0.0565
CAAACAACTTGGGTTCTAACCTGTTGCCT (site CAAACAACTAG)	0.235
CAAACAACTTGGGTTCTAACCTGTTGCCT (site CAAACACCTAG)	0.188
CAAACAACTTGGGTTCTAACCTGTTGCCT (site CAAACAGCTAG)	0.101
CAAACAACTTGGGTTCTAACCTGTTGCCT (site CAAACATCTAG)	0.133
CAAACTACTTGGGTTCTAACCTGTTGCTA (site CAAACTACTGT)	0.011
CAAACTACTTGGGTTCTAACCTGTTGCTA (site CAAACTACTTA)	0.386
CAAACTCCTTGGGTTCTAACCTGTTGCAT (site CAAACTCCTAA)	0.116
CAAACTCCTTGGGTTCTAACCTGTTGCAT (site CAAACTCCTAC)	0.0268
CAAACTCCTTGGGTTCTAACCTGTTGCAT (site CAAACTCCTAG)	0.0257
CAAACTCCTTGGGTTCTAACCTGTTGCAT (site CAAACTCCTAT)	0.713
CAAACTCCTTGGGTTCTAACCTGTTGCCT (site CAAACTCCTAA)	0.137
CAAACTCCTTGGGTTCTAACCTGTTGCCT (site CAAACTCCTAC)	0.0217
CAAACTCCTTGGGTTCTAACCTGTTGCCT (site CAAACTCCTAG)	0.238
CAAACTCCTTGGGTTCTAACCTGTTGCCT (site CAAACTCCTAT)	0.067
CAAACTCCTTGGGTTCTAACCTGTTGCTT (site CAAACTCCTAA)	0.191
CAAACTCCTTGGGTTCTAACCTGTTGCTT (site CAAACTCCTAC)	0.0428
CAAACTCCTTGGGTTCTAACCTGTTGCTT (site CAAACTCCTAG)	0.221
CAAACTCCTTGGGTTCTAACCTGTTGCTT (site CAAACTCCTAT)	0.0809
CAAAGACCTTGGGTTCTAACCTGTTGCGG (site AAAATACCTCC)	0.14
